Assay results from US12497365B2, “4-pyridinyl formamide compound or derivative thereof, preparation method therefor, herbicidal composition and use thereof” (Qingdao Kingagroot Chemical Compound Co., Ltd., priority 2019, dated 2025).

How the values were obtained:
Experiment in all cases: Weeding effect in post-emergence stage
Format in all cases: in vivo
Conditions in all cases: active ingredient 2000 g/ha, 3 weeks after application, fresh weight control rate
[1] = test system: Amaranthus retroflexus L.
Summary of the method: (§1)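 Greenhouse-grown weeds at the 2-3 leaf stage, about 2 weeks after sowing, were sprayed with compound at 2000-125 g/ha. The spray solution was made from acetone with Tween 80 and 1.5 L/ha methyl oleate concentrate as synergist. Fresh-weight growth control was scored 3 weeks after treatment.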

Chenopodium album = test system: Chenopodium album
Summary of the method: as §1

Abutilon theophrasti = test system: Abutilon theophrasti
Summary of the method: as §1

Descurainia sophia = test system: Descurainia sophia
Summary of the method: as §1

Row | SMILES | Weeding effect, activity level (growth control rate), Amaranthus retroflexus L. [1] | Weeding effect, activity level (growth control rate), Chenopodium album (Chenopodium album) | Weeding effect, activity level (growth control rate), Abutilon theophrasti (Abutilon theophrasti) | Weeding effect, activity level (growth control rate), Descurainia sophia (Descurainia sophia)
1 | Cc1ccc(-c2nccc(C(=O)Nc3nnnn3C)c2Cl)c(F)c1 [Compound 1-69] | 5 (Level 5: growth control rate is above 85%) | 5 (Level 5: growth control rate is above 85%) | 5 (Level 5: growth control rate is above 85%) | 5 (Level 5: growth control rate is above 85%)
2 | Cn1nnnc1NC(=O)c1ccnc(-c2ccc(Br)nc2F)c1Cl [Compound 1-140] | 5 (Level 5: growth control rate is above 85%) | 5 (Level 5: growth control rate is above 85%) | 5 (Level 5: growth control rate is above 85%) | 5 (Level 5: growth control rate is above 85%)
3 | CCSc1c(C(=O)Nc2nnnn2C)ccnc1-c1ccc(F)cc1 [Compound 1-204] | 5 (Level 5: growth control rate is above 85%) | 5 (Level 5: growth control rate is above 85%) | 5 (Level 5: growth control rate is above 85%) | 5 (Level 5: growth control rate is above 85%)
4 | CN(C)c1c(C(=O)Nc2nnnn2C)ccnc1-c1ccc(F)cc1 [Compound 1-208] | 5 (Level 5: growth control rate is above 85%) | 5 (Level 5: growth control rate is above 85%) | 5 (Level 5: growth control rate is above 85%) | 5 (Level 5: growth control rate is above 85%)
5 | Cn1nnnc1NC(=O)c1ccnc(-c2cccc3c2OC(F)(F)O3)c1Cl [Compound 1-1972] | 5 (Level 5: growth control rate is above 85%) | 5 (Level 5: growth control rate is above 85%) | 5 (Level 5: growth control rate is above 85%) | 5 (Level 5: growth control rate is above 85%)
6 | Cc1ccc(-c2nccc(C(=O)Nc3nnnn3C)c2Cl)c(C)c1 [Compound 1-59] | 5 (Level 5: growth control rate is above 85%) | 5 (Level 5: growth control rate is above 85%) | 5 (Level 5: growth control rate is above 85%) | 5 (Level 5: growth control rate is above 85%)
7 | Cn1nnnc1NC(=O)c1ccnc(C2=CCN(C(=O)OC(C)(C)C)CC2)c1Cl [Compound 1-6] | 5 (Level 5: growth control rate is above 85%) | 5 (Level 5: growth control rate is above 85%) | 5 (Level 5: growth control rate is above 85%) | 5 (Level 5: growth control rate is above 85%)
8 | Cn1nnnc1NC(=O)c1ccnc(-c2ccc(OC(F)(F)F)cc2)c1Cl [Compound 1-33] | 5 (Level 5: growth control rate is above 85%) | 5 (Level 5: growth control rate is above 85%) | 5 (Level 5: growth control rate is above 85%) | 5 (Level 5: growth control rate is above 85%)
9 | Cc1cc(C)cc(-c2nccc(C(=O)Nc3nnnn3C)c2Cl)c1 [Compound 1-60] | 5 (Level 5: growth control rate is above 85%) | 5 (Level 5: growth control rate is above 85%) | 5 (Level 5: growth control rate is above 85%) | 5 (Level 5: growth control rate is above 85%)
10 | Cn1nnnc1NC(=O)c1ccnc(-c2ccn[nH]2)c1Cl [Compound 1-177] | 5 (Level 5: growth control rate is above 85%) | 5 (Level 5: growth control rate is above 85%) | 5 (Level 5: growth control rate is above 85%) | 5 (Level 5: growth control rate is above 85%)
11 | CCn1nnnc1NC(=O)c1ccnc(-c2ccc(F)cc2)c1Cl [Compound 1-307] | 5 (Level 5: growth control rate is above 85%) | 5 (Level 5: growth control rate is above 85%) | 5 (Level 5: growth control rate is above 85%) | 5 (Level 5: growth control rate is above 85%)
12 | Cn1nnnc1NC(=O)c1ccnc(-c2ccc(F)c(F)c2)c1Cl [Compound 1-66] | 5 (Level 5: growth control rate is above 85%) | 5 (Level 5: growth control rate is above 85%) | 5 (Level 5: growth control rate is above 85%) | 5 (Level 5: growth control rate is above 85%)
13 | CC(C)c1c(C(=O)Nc2nnnn2C)ccnc1-c1ccc(F)cc1 [Compound 1-197] | 5 (Level 5: growth control rate is above 85%) | 5 (Level 5: growth control rate is above 85%) | 5 (Level 5: growth control rate is above 85%) | 5 (Level 5: growth control rate is above 85%)
14 | Cn1nnnc1NC(=O)c1ccnc(-c2cn[nH]c2)c1Cl [Compound 1-167] | 5 (Level 5: growth control rate is above 85%) | 5 (Level 5: growth control rate is above 85%) | 5 (Level 5: growth control rate is above 85%) | 5 (Level 5: growth control rate is above 85%)
15 | COc1c(C(=O)Nc2nnnn2C)ccnc1-c1ccc(F)cc1 [Compound 1-200] | 5 (Level 5: growth control rate is above 85%) | 5 (Level 5: growth control rate is above 85%) | 5 (Level 5: growth control rate is above 85%) | 5 (Level 5: growth control rate is above 85%)
16 | Cc1nnc(NC(=O)c2ccnc(-c3ccc(F)cc3)c2Cl)o1 [Compound 1-962] | 5 (Level 5: growth control rate is above 85%) | 5 (Level 5: growth control rate is above 85%) | 5 (Level 5: growth control rate is above 85%) | 5 (Level 5: growth control rate is above 85%)
17 | Cc1ccc(-c2nccc(C(=O)Nc3nnnn3C)c2Cl)s1 [Compound 1-187] | 5 (Level 5: growth control rate is above 85%) | 5 (Level 5: growth control rate is above 85%) | 5 (Level 5: growth control rate is above 85%) | 5 (Level 5: growth control rate is above 85%)
18 | Cn1nnnc1NC(=O)c1ccnc(-c2ccc(F)cc2)c1[S+](C)[O-] (stereo not shown) [Compound 1-205] | 5 (Level 5: growth control rate is above 85%) | 5 (Level 5: growth control rate is above 85%) | 5 (Level 5: growth control rate is above 85%) | 5 (Level 5: growth control rate is above 85%)
19 | Cc1ccc(F)c(-c2nccc(C(=O)Nc3nnnn3C)c2Cl)c1 [Compound 1-67] | 5 (Level 5: growth control rate is above 85%) | 5 (Level 5: growth control rate is above 85%) | 5 (Level 5: growth control rate is above 85%) | 5 (Level 5: growth control rate is above 85%)
20 | Cn1nnnc1NC(=O)c1ccnc(-c2ccc(C#N)cn2)c1Cl [Compound 1-121] | 5 (Level 5: growth control rate is above 85%) | 5 (Level 5: growth control rate is above 85%) | 5 (Level 5: growth control rate is above 85%) | 5 (Level 5: growth control rate is above 85%)
21 | Cn1nnnc1NC(=O)c1ccnc(-c2cccnc2C(F)(F)F)c1Cl [Compound 1-141] | 5 (Level 5: growth control rate is above 85%) | 5 (Level 5: growth control rate is above 85%) | 5 (Level 5: growth control rate is above 85%) | 5 (Level 5: growth control rate is above 85%)
22 | Cn1nnnc1NC(=O)c1ccnc(-c2ccc(F)cc2)c1C(F)(F)F [Compound 1-198] | 5 (Level 5: growth control rate is above 85%) | 5 (Level 5: growth control rate is above 85%) | 5 (Level 5: growth control rate is above 85%) | 5 (Level 5: growth control rate is above 85%)
